Data taken from patent US20170158776A1, “TREATMENT OF LUNG CANCER USING A COMBINATION OF AN ANTI-PD-1 ANTIBODY AND ANOTHER ANTI-CANCER AGENT” (Bristol-Myers Squibb Company, priority 2014, published 2017).
Several values for one entry are separate records, joined by “and”; a condition that tells them apart may be missing. Identical values can stand only once. Marks after values point to notes of the source that are not given here.

Columns and labels:
[1] = tested on: heavily pretreated patients with advanced NSCLC; assay: CA209-003 phase 1: nivolumab monotherapy, efficacy (RECIST 1.0, OS, subgroups, PD-L1); format: in vivo, human
Procedure: Objective response rate (ORR) was analyzed according to select patient characteristics (age, gender, Eastern Cooperative Oncology Group performance status [ECOG PS], histology, number of prior therapies, prior tyrosine kinase inhibitor [TKI] therapy, epidermal growth factor receptor [EGFR] and Kirsten rat sarcoma viral oncogene homolog [KRAS] mutational status).
PD-L1 expression in archived tumor samples was measured using the Dako immunohistochemistry (IHC) assay. Positive staining with this assay was defined as tumor membrane staining at any intensity, and was analyzed with cut-off values of 1% and 5% expression to assess PD-L1 positivity (Butte M J, et al.). Tumor PD-L1 expression was evaluated for potential association with clinical endpoints.

[2] = tested on: heavily pretreated patients with advanced NSCLC; assay: CA209-003 phase 1: nivolumab monotherapy, safety; details: N = 129

nivolumab
Estimated Median DOR ([1]; 1 mg/kg): 63.9 wks | Median OS ([1]; 1 mg/kg): 9.2 mo | Median PFS ([1]; 1 mg/kg): 1.8 mo | ORR ([1]; 1 mg/kg): 3.0% | OS Rate 1-year ([1]; 1 mg/kg): 32% | OS Rate 2-year ([1]; 1 mg/kg): 12% | Estimated Median DOR ([1]; 3 mg/kg): 74.0 wks | Median OS ([1]; 3 mg/kg): 14.9 mo | Median PFS ([1]; 3 mg/kg): 1.9 mo | ORR ([1]; 3 mg/kg): 24% and 24.3% | OS Rate 1-year ([1]; 3 mg/kg): 56% | OS Rate 2-year ([1]; 3 mg/kg): 45% | Estimated Median DOR ([1]; 10 mg/kg): 83.1 wks | Median OS ([1]; 10 mg/kg): 9.2 mo | Median PFS ([1]; 10 mg/kg): 3.7 mo | ORR ([1]; 10 mg/kg): 20.3% | OS Rate 1-year ([1]; 10 mg/kg): 40% | OS Rate 2-year ([1]; 10 mg/kg): 19% | of these, responses ongoing at the time of reporting ([1]; 5 of 6): 83% | responders who discontinued for reasons other than disease progression and responded for >30 weeks after the last dose ([1]; 6/16): 38% | Responses ongoing at the time of analysis ([1]; 10/22): 45% | patients with ORs with response at first assessment (8 weeks) ([1]; 11/22): 50% | Estimated Median DOR ([1]; All doses): 74 wks and 74.0 wks | Median OS ([1]; All doses): 9.9 mo | Median PFS ([1]; All doses): 2.3 mo | ORR ([1]; All doses): 17% | OS Rate 1-year ([1]; All doses): 42% | OS Rate 2-year ([1]; All doses): 24% | Median OS (95% CI) ([1]; Non-squamous, 1 mg/kg): 9.9 (5.3, 22.5) mo | ORR ([1]; Non-squamous, 1 mg/kg): 5.6 (1/18) % (n/N) | OS Rate 1-year (95% CI) ([1]; Non-squamous, 1 mg/kg): 36 (15, 58) | OS Rate 2-year (95% CI) ([1]; Non-squamous, 1 mg/kg): 15 (3, 36) | Median OS (95% CI) ([1]; Non-squamous, 3 mg/kg): 18.2 (5.2, NE) mo | ORR ([1]; Non-squamous, 3 mg/kg): 26.3 (5/19) % (n/N) | OS Rate 1-year (95% CI) ([1]; Non-squamous, 3 mg/kg): 62 (37, 80) | OS Rate 2-year (95% CI) ([1]; Non-squamous, 3 mg/kg): 48 (22, 69) | Median OS (95% CI) ([1]; Non-squamous, 10 mg/kg): 7.4 (4.5, 12.4) mo | ORR ([1]; Non-squamous, 10 mg/kg): 18.9 (7/37) % (n/N) | OS Rate 1-year (95% CI) ([1]; Non-squamous, 10 mg/kg): 36 (21, 52) | OS Rate 2-year (95% CI) ([1]; Non-squamous, 10 mg/kg): 15 (6, 29) | Median OS (95% CI) ([1]; Non-squamous, All doses): 10.1 mo and 10.1 (5.7, 13.7) mo | ORR ([1]; Non-squamous, All doses): 17.6 (13/74) % (n/N) | OS Rate 1-year (95% CI) ([1]; Non-squamous, All doses): 43 (32, 54) | OS Rate 2-year (95% CI) ([1]; Non-squamous, All doses): 23 (13, 34) | ORR ([1]; PD-L1+ (5% cut-off), Non-squamous): 17 (3/18) % (n/N) | ORR ([1]; PD-L1+ (5% cut-off), Squamous): 13 (2/15) % (n/N) | Median OS ([1]; PD-L1+ tumors): 7.8 months | Median PFS ([1]; PD-L1+ tumors): 3.6 months | ORR ([1]; PD-L1 cut-off 1%, Negative): 17 (5/30) % (n/N) | ORR ([1]; PD-L1 cut-off 1%, Positive): 13 (5/38) % (n/N) | ORR ([1]; PD-L1 cut-off 5%, Negative, all patients): 14 (5/35) % (n/N) | ORR ([1]; PD-L1 cut-off 5%, Positive, all patients): 15 (5/33) % (n/N) | ORR ([1]; PD-L1− (5% cut-off), Non-squamous): 10 (2/21) % (n/N) | ORR ([1]; PD-L1− (5% cut-off), Squamous): 21 (3/14) % (n/N) | Median OS ([1]; PD-L1− tumors): 10.5 months | Median PFS ([1]; PD-L1− tumors): 1.8 months | Median OS (95% CI) ([1]; Squamous, 1 mg/kg): 8.0 (2.4, 13.3) mo | ORR ([1]; Squamous, 1 mg/kg): 0 (0/15) % (n/N) | OS Rate 1-year (95% CI) ([1]; Squamous, 1 mg/kg): 27 (7, 51) | OS Rate 2-year (95% CI) ([1]; Squamous, 1 mg/kg): 9 (1, 32) | Median OS (95% CI) ([1]; Squamous, 3 mg/kg): 9.5 (5.3, NE) mo | ORR ([1]; Squamous, 3 mg/kg): 22.2 (4/18) % (n/N) | OS Rate 1-year (95% CI) ([1]; Squamous, 3 mg/kg): 49 (23, 71) | OS Rate 2-year (95% CI) ([1]; Squamous, 3 mg/kg): 41 (17, 64) | Median OS (95% CI) ([1]; Squamous, 10 mg/kg): 10.5 (4.9, 16.7) mo | ORR ([1]; Squamous, 10 mg/kg): 23.8 (5/21) % (n/N) | OS Rate 1-year (95% CI) ([1]; Squamous, 10 mg/kg): 43 (22, 62) | OS Rate 2-year (95% CI) ([1]; Squamous, 10 mg/kg): 22 (7, 42) | Median OS (95% CI) ([1]; Squamous, All doses): 9.2 mo and 9.2 (7.3, 12.5) mo | ORR ([1]; Squamous, All doses): 16.7 (9/54) % (n/N) | OS Rate 1-year (95% CI) ([1]; Squamous, All doses): 40 (27, 54) | OS Rate 2-year (95% CI) ([1]; Squamous, All doses): 24 (13, 37) | patients maintaining SD for ≧48 weeks ([1]; across doses): 5% | Patients with any treatment-related select AE, Any Grade [2]: 41 (53) % (n) | Patients with any treatment-related select AE, Grade 3-4 [2]: 5 (6) % (n) | select AE Endocrinopathies, Any Grade [2]: 6 (8) % (n) | select AE Endocrinopathies, Grade 3-4 [2]: 0 % (n) | select AE Gastrointestinal, Any Grade [2]: 12 (15) % (n) | select AE Gastrointestinal, Grade 3-4 [2]: 1 (1) % (n) | select AE Hepatic, Any Grade [2]: 5 (6) % (n) | select AE Hepatic, Grade 3-4 [2]: 1 (1) % (n) | select AE Infusion reaction, Any Grade [2]: 4 (5) % (n) | select AE Infusion reaction, Grade 3-4 [2]: 1 (1) % (n) | select AE Pulmonary, Any Grade [2]: 7 (9)^c % (n) | select AE Pulmonary, Grade 3-4 [2]: 2 (3) % (n) | select AE Renal, Any Grade [2]: 3(4) % (n)
